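Exposure lasted 48 hours, with cells grown in 96-well plates and compounds tested at five concentrations. Definition used: TGI = concentration required for complete inhibition of growth.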 Where a SMILES comes first, the peptide text is derived from it. [ ]: non-standard residue; d: D form. The star is where a group is joined. ξ: configuration not given here. Propanoyl(3-(4-MeO-Ph)) = COc1ccc(CCC(=O)*)cc1; Thr(3ξ) = CC(O)[C@H](N)C(=O)O; dNMeL = CN[C@H](CC(C)C)C(=O)O; OBn = c1ccc(CO*)cc1; ξLac = CC(O)C(=O)O
Tests used:
Assay in all cases: NCI anticancer screen, dose series, 48 h
K-562 leukemia = test system: K-562 leukemia
NCI-H23 lung = test system: NCI-H23 lung
SK-MEL-5 melanoma = test system: SK-MEL-5 melanoma
HOP-92 NSCLC = test system: HOP-92 NSCLC
SNB-19 CNS = test system: SNB-19 CNS
A498 renal = test system: A498 renal
OVCAR-8 ovarian = test system: OVCAR-8 ovarian
EKVX NSCLC = test system: EKVX NSCLC
HCT-116 colon = test system: HCT-116 colon
CCRF-CEM leukemia = test system: CCRF-CEM leukemia

SMILES | TGI (K-562 leukemia) [µM] | TGI (NCI-H23 lung) [µM] | TGI (SK-MEL-5 melanoma) [µM] | TGI (HOP-92 NSCLC) [µM] | TGI (SNB-19 CNS) [µM] | TGI (A498 renal) [µM] | TGI (OVCAR-8 ovarian) [µM] | TGI (EKVX NSCLC) [µM] | TGI (HCT-116 colon) [µM] | TGI (CCRF-CEM leukemia) [µM]
CC[C@@]1(O)C(=O)OCc2c1cc1n(c2=O)Cc2c-1nc1ccccc1c2/C=N\NC(=O)C(N)Cc1cnc[nH]1 (stereo not given in full) | > 100 | 2.45 | 1.03 | > 41.5 | > 100 | 4.09 | 16.1 | > 100 | > 41.4 | 15
COc1cc(/C=C/C(=O)N[C@@H]2C(=O)N3[C@@H]2SC(C)(C)[C@@H]3C(=O)O)cc(OC)c1OC | > 100 | > 100 | > 100 | > 100 | > 100 | > 100 | > 100 | > 100 | > 100 | > 100
O=C(N/N=C\c1ccc([N+](=O)[O-])cc1)c1ccccc1Nc1ccccc1C(=O)N/N=C/c1ccc([N+](=O)[O-])cc1 | > 100 | > 100 | > 100 | > 100 | > 100 | > 100 | > 100 | > 100 | > 100 | > 100
O=CC1OC(=O)c2cc(O)c(O)c(O)c2-c2c(cc(O)c(O)c2O)C(=O)OC1C(O)C(O)CO (stereo not given) | 44.2 | > 100 | > 100 | > 100 | > 100 | > 100 | 45.8 | > 100 | 81.1 | 85.5
N#C[C@@]12CCCC(=O)[C@@H]1[C@H]1CCC[C@H]12 | 37.7 | 35 | 30.8 | 38 | 42.4 | 31.5 | 47.5 | 28.6 | 30.8 | 57.4
CC(C)(C)OC(=O)NC(Cc1ccc(OCc2ccccc2)cn1)C(=O)N1CCSCC1 (stereo not given) | > 100 | > 100 | 29.9 | > 100 | > 100 | > 100 | > 100 | > 100 | > 100 | > 100
O=C1OC[C@@H]2Cc3c([nH]c4ccccc34)[C@@H](c3cc(O)c(O)c(O)c3)N12 | 58.7 | 98.6 | 29.2 | > 100 | 69.1 | 48 | 41.8 | > 100 | 61.5 | 54.3
Nc1nc(N)c2nc(-c3ccco3)cnc2n1 | > 100 | > 100 | > 100 | > 100 | > 100 | > 100 | > 100 | > 100 | > 100 | > 100
Cc1ccc(S(=O)(=O)/N=C(\[O-])C2=C(c3ccccc3)NN(C)c3nc4cccc[n+]4nc32)cc1 | > 100 | > 100 | > 100 | 81.9 | > 100 | > 100 | > 100 | > 100 | > 100 | > 100
CCN(CC)CCSc1nc2c(c(=N)n1-c1ccccc1)c(=S)n(-c1ccccc1)c(=S)n2-c1ccccc1 | 2.5 | 10.8 | 11.4 | 2.88 | 40.6 | 22.2 | 3.54 | 7.31 | 4.69 | 0.446
COC(=O)[C@H](Cc1ccccc1)NP(=O)(O)OCC1OC(n2cc(C)c(=O)[nH]c2=O)CC1N=[N+]=[N-] (stereo not given in full) | > 100 | > 100 | > 100 | > 100 | > 100 | > 100 | > 100 | > 100 | > 100 | > 100
Cc1ccc(O)c(-c2csc(NCN3CCN(CNc4nc(-c5cc(C)ccc5O)cs4)CC3)n2)c1 | > 100 | > 100 | > 100 | > 100 | > 100 | > 100 | > 100 | > 100 | > 100 | > 100
CC(C)CC1[C@@H](OCc2ccccc2)COS(=O)(=O)N1Cc1ccccc1 (stereo not given in full) | > 100 | 75.2 | > 100 | > 100 | > 100 | > 100 | > 100 | > 100 | > 100 | > 100
Cc1ccc(Nc2nc(=O)[nH]c(=O)[nH]2)cc1N=[N+]=[N-] | > 100 | > 100 | > 100 | > 100 | > 100 | > 100 | > 100 | > 100 | > 100 | > 100
COc1ccc(CCCC(=O)O)c(C)c1 | > 100 | > 100 | > 100 | 90.8 | > 100 | 52.6 | > 100 | > 100 | > 100 | > 100
COc1ccc(C(C#N)NCCCCCCNC(C#N)c2ccc(OC)cc2)cc1 (stereo not given) | > 100 | > 100 | > 100 | > 100 | > 100 | > 100 | > 100 | > 100 | > 100 | > 100
Nn1c(SCC(=O)NCc2ccccc2)nc2ccccc2c1=O | > 100 | > 100 | > 100 | > 100 | > 100 | > 100 | > 100 | > 100 | 93.1 | > 100
CCCC#CC(O)(C(=O)OC1CCN(C)CC1)C1CCCCC1 (stereo not given) | > 100 | > 100 | > 100 | > 100 | > 100 | > 100 | > 100 | > 100 | > 100 | > 100

SMILES | TGI (K-562 leukemia) [µM] | TGI (NCI-H23 lung) [µM] | TGI (SK-MEL-5 melanoma) [µM] | TGI (HOP-92 NSCLC) [µM] | TGI (SNB-19 CNS) [µM] | TGI (A498 renal) [µM] | TGI (OVCAR-8 ovarian) [µM] | TGI (EKVX NSCLC) [µM] | TGI (HCT-116 colon) [µM] | TGI (CCRF-CEM leukemia) [µM]
CC(=O)N1N=C(N)CC1=O | > 100 | > 100 | > 100 | > 100 | > 100 | > 100 | > 100 | > 100 | > 100 | > 100
COc1ccc(Nc2nc(N)c(C(=O)c3ccccc3)s2)cc1 | > 100 | > 60.3 | 4.01 | > 92.7 | > 100 | > 72.5 | > 100 | 58.2 | 3.38 | > 80.6
O[C@H]1[C@H](O)[C@H](O)CN2CCC[C@@H](O)[C@H]12 | > 100 | > 100 | > 100 | > 100 | > 100 | > 100 | > 100 | > 100 | > 100 | > 100
CCn1c(-c2ccc(C)cc2)cs/c1=N\C(P(=O)(O)O)P(=O)(O)O | > 100 | > 100 | > 100 | > 100 | > 100 | > 100 | > 100 | > 100 | > 100 | > 100
CC1(C)C(=O)C2(OS(=O)(=O)C(F)(F)F)CCC1C2 (stereo not given) | > 100 | > 100 | > 100 | > 100 | > 100 | > 100 | > 100 | > 100 | > 100 | > 100
O=C1/C(=C/c2cccs2)NC(=S)N1CN1CCOCC1 | > 100 | > 100 | > 100 | > 100 | > 100 | > 100 | > 100 | > 100 | > 100 | > 100
O=C(N/N=C\c1ccc([N+](=O)[O-])cc1)Nc1cccc2ccccc12 | > 100 | 61.9 | > 100 | 16.7 | 29.4 | 40.9 | 34.7 | > 100 | > 52.2 | > 100
O=c1[nH]c2ccc(CC(=S)N3CCN(c4ccccc4)CC3)cc2o1 | > 100 | > 100 | > 100 | > 100 | > 100 | > 100 | > 100 | > 100 | > 100 | > 100
COc1ccc(C2SCC(=O)N2NC(=O)C(C)Oc2ccccc2Cl)cc1 (stereo not given) | > 100 | > 100 | 65.6 | 77.4 | > 100 | 92.2 | > 100 | > 100 | > 100 | 79.6
NCCCc1c(-c2ccccc2)nc(N)[nH]c1=O | > 100 | > 100 | > 100 | > 100 | > 100 | > 100 | > 100 | > 100 | > 100 | > 100
Cc1ccc2cccc3c2c1CC1(C3=O)S(=O)(=O)OCCOS1(=O)=O | > 100 | > 100 | > 100 | > 100 | > 100 | > 100 | > 100 | > 100 | > 100 | > 100
COc1ccc(CCC(=O)OC(C)[C@H](NC(=O)[C@@H](CC(C)C)N(C)C(=O)[C@@H]2CCCN2C(=O)C(C)O)C(=O)OCc2ccccc2)cc1 (stereo not given in full) (H-[ξLac]P[dNMeL][Thr(3ξ)](Propanoyl(3-(4-MeO-Ph)))-OBn) | 74.5 | > 100 | 28.8 | 41.6 | > 100 | > 100 | > 100 | > 100 | > 100 | 68.9
CC(=O)O[C@H]1CC[C@@]2(C)C(=CC[C@@H]3[C@@H]2CC[C@]2(C)c4c(cc(C#N)c(=N)n4C(C)=O)C[C@@H]32)C1 | > 100 | 32.1 | 29.7 | 59.8 | 89 | 88.7 | 37.6 | 43.2 | 28.5 | 23.2
CC1=C(C(=O)Nc2ccccc2)C(c2ccc(C)o2)C(C#N)=C(SCc2ccccc2)N1 (stereo not given) | > 100 | > 100 | > 100 | > 66.4 | > 100 | > 100 | > 100 | > 100 | > 100 | > 100
Clc1ccc2c(NCCNc3ccnc4cc(Cl)ccc34)ccnc2c1 | 28.2 | 33.2 | 38.1 | 38.5 | 50.2 | 32.2 | 43.1 | 41.4 | 33.1 | 46.2
N=c1oc2ccc(Cl)cc2cc1C(=O)NCc1ccccc1 | > 70.4 | > 100 | > 100 | > 100 | > 100 | > 100 | > 100 | > 100 | > 100 | > 54
O=C1OC(C2OC(=O)c3cc(O)c(O)c(O)c3-c3c(O)c(O)c4oc(=O)c5c(c(O)c(O)c6oc(=O)c3c4c65)-c3c(cc(O)c(O)c3O)C(=O)OCC2O)C2OC(=O)c3c(c(O)c(O)c(O)c3[C@H]2O)-c2c1cc(O)c(O)c2O (stereo not given in full) | 42.5 | 41.2 | 33.9 | 87.1 | > 100 | > 100 | 47.7 | 41 | 38.8 | 37.6
N#CC(N=Nc1ccccc1)c1nc2ccccc2o1 (stereo not given) | > 100 | 43.9 | > 100 | 46.7 | > 100 | > 100 | 79.4 | > 100 | 57.5 | > 100

Source: PubChem BioAssay (NCI)
